Data published in the supplement of paper PMC11061612.

Legend:
[1] = test system: TGW (Neuroblastoma); experiment: combination Emax (second highest fraction inhibited in the dose matrix, 72 h); higher = more inhibition; extreme values may be limits of the assay
How it was run: (§1)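 After 24 hours at 37°C and 5% CO2 in 1536-well plates, cells in DMEM/F12 or RPMI plus 10% FBS received two-drug dose matrices for 72 hours. Viability came from CellTiter-Glo 2.0 luminescence and was scaled as inhibition, anchored at 0 by vehicle wells and at 1 by blank wells. Combination Emax is taken as the second-highest inhibition in the matrix, and Bliss excess as the observed combination effect less EA + EB − EA·EB, with EA and EB the single-agent effects.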

[2] = test system: PANC-04-03 (Pancreatic Carcinoma); experiment: as above
How it was run: as §1

[3] = test system: JVM-3 (B-Cell Non-Hodgkin's Lymphoma); experiment: as above
How it was run: as §1

[4] = test system: JVM-3 (B-Cell Non-Hodgkin's Lymphoma); experiment: Bliss excess, mean over the matrix (fraction); higher = more synergy
How it was run: as §1
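Wherever Bliss excess, mean over the matrix is given: after 72 h of two-drug dosing.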

In the case of `CN(CCO)CC[C@H](CSc1ccccc1)Nc1ccc(S(=O)(=O)NC(=O)c2ccc(N3CCC([C@@H](O)c4ccccc4-c4ccc(Cl)cc4)CC3)cc2)cc1S(=O)(=O)C(F)(F)F` [AZD4320] + CN(C)CCCOc1ccc(-c2ccc3ncc4c(c3c2)n(C2CCOCC2)c(=O)n4C)cn1 [AZD0156] (first compound max 1 µM, 7x7, partner max 1 µM), the “combination Emax” value [1] is reported as 0.963, the “combination Emax” value [2] is reported as 0.192 and the “combination Emax” value [3] is reported as 0.92. The Bliss excess [4] was 0.0006.

`Cc1c2c(nn1C)CSCc1cc(n(C)n1)CSc1cc(c3ccccc3c1)OCCCc1c(C(=O)O)n(C)c3c-2c(Cl)ccc13` [AZD5991] + CC1(C)CCC(CN2CCN(c3ccc(C(=O)NS(=O)(=O)c4ccc(NCC5CCOCC5)c([N+](=O)[O-])c4)c(Oc4cnc5[nH]ccc5c4)c3)CC2)=C(c2ccc(Cl)cc2)C1 [Venetoclax] (first compound max 1 µM, 7x7, partner max 1 µM) was tested, and the “combination Emax” value [1] was 0.857, the “combination Emax” value [2] was 0.175 and the “combination Emax” value [3] was 0.764. It also gave a Bliss excess [4] of 0.146.

In the case of `CC1(C)CCC(CN2CCN(c3ccc(C(=O)NS(=O)(=O)c4ccc(NCC5CCOCC5)c([N+](=O)[O-])c4)c(Oc4cnc5[nH]ccc5c4)c3)CC2)=C(c2ccc(Cl)cc2)C1` [Venetoclax] + C[C@@H]1COCCN1C2=NC(=NC(=C2)C3(CC3)[S@](=N)(=O)C)C4=C5C=CNC5=NC=C4 [AZD6738] (first compound max 1 µM, 7x7, partner max 10 µM), the “combination Emax” value [1] is reported as 0.715, the “combination Emax” value [2] is reported as 0.443 and the “combination Emax” value [3] is reported as 0.9. The Bliss excess [4] was 0.0106.

With `CC1(C)CCC(CN2CCN(c3ccc(C(=O)NS(=O)(=O)c4ccc(NCC5CCOCC5)c([N+](=O)[O-])c4)c(Oc4cnc5[nH]ccc5c4)c3)CC2)=C(c2ccc(Cl)cc2)C1` [Venetoclax] + C[C@@H](Nc1cc(F)cc(F)c1)c1cc(C(=O)N(C)C)cc2c(=O)cc(N3CCOCC3)oc12 [AZD8186] (first compound max 1 µM, 7x7, partner max 3 µM) the “combination Emax” value [1] was 0.377, the “combination Emax” value [2] was 0.149 and the “combination Emax” value [3] was 0.486. The Bliss excess [4] was -0.0619.

`COc1cccc(OCCCN)c1-c1cc(Nc2cnc(C#N)cn2)n[nH]1` [Prexasertib] + C=CCn1c(=O)c2cnc(Nc3ccc(N4CCN(C)CC4)cc3)nc2n1-c1cccc(C(C)(C)O)n1 [AZD1775] (first compound max 1 µM, partner max 1 µM) was tested, and the “combination Emax” value [1] was 0.999, the “combination Emax” value [2] was 0.627 and the “combination Emax” value [3] was 0.973. For the same compound, the Bliss excess [4] was 0.0369.

With `CCN(CCO)CCCOc1ccc2c(Nc3cc(CC(=O)Nc4cccc(F)c4)[nH]n3)ncnc2c1` [AZD2811] + C[C@@H]1COCCN1C2=NC(=NC(=C2)C3(CC3)[S@](=N)(=O)C)C4=C5C=CNC5=NC=C4 [AZD6738] (first compound max 1 µM, 7x7, partner max 10 µM) the “combination Emax” value [1] was 0.706, the “combination Emax” value [2] was 0.545 and the “combination Emax” value [3] was 0.723. The Bliss excess [4] was -0.0101.

With `CCN(CCO)CCCOc1ccc2c(Nc3cc(CC(=O)Nc4cccc(F)c4)[nH]n3)ncnc2c1` [AZD2811] + O=C(c1cc(Cc2n[nH]c(=O)c3ccccc23)ccc1F)N1CCN(C(=O)C2CC2)CC1 [Olaparib] (first compound max 1 µM, 7x7, partner max 10 µM) the “combination Emax” value [1] was 0.532, the “combination Emax” value [2] was 0.227 and the “combination Emax” value [3] was 0.45. It also gave a Bliss excess [4] of -0.0119.

For `CC1(C)CCC(CN2CCN(c3ccc(C(=O)NS(=O)(=O)c4ccc(NCC5CCOCC5)c([N+](=O)[O-])c4)c(Oc4cnc5[nH]ccc5c4)c3)CC2)=C(c2ccc(Cl)cc2)C1` [Venetoclax] + C=CCn1c(=O)c2cnc(Nc3ccc(N4CCN(C)CC4)cc3)nc2n1-c1cccc(C(C)(C)O)n1 [AZD1775] (first compound max 1 µM, partner max 1 µM), the “combination Emax” value [1] was 0.846, the “combination Emax” value [2] was 0.466 and the “combination Emax” value [3] was 0.953. The Bliss excess [4] was -0.0521.

For `CCc1c2c(nc3ccc(O)cc13)-c1cc3c(c(=O)n1C2)COC(=O)[C@]3(O)CC` [SN-38] + CN(C)CCCOc1ccc(-c2ccc3ncc4c(c3c2)n(C2CCOCC2)c(=O)n4C)cn1 [AZD0156] (first compound max 0.3 µM, 7x7, partner max 1 µM), the “combination Emax” value [1] was 0.62, the “combination Emax” value [2] was 0.462 and the “combination Emax” value [3] was 0.982. It also gave a Bliss excess [4] of -0.0309.

With `CN(C)CCCOc1ccc(-c2ccc3ncc4c(c3c2)n(C2CCOCC2)c(=O)n4C)cn1` [AZD0156] + O=C(c1cc(Cc2n[nH]c(=O)c3ccccc23)ccc1F)N1CCN(C(=O)C2CC2)CC1 [Olaparib] (first compound max 3 µM, partner max 3 µM) the “combination Emax” value [1] was 0.413, the “combination Emax” value [2] was 0.32 and the “combination Emax” value [3] was 0.684. It also gave a Bliss excess [4] of 0.234.

`CC1(C)CCC(CN2CCN(c3ccc(C(=O)NS(=O)(=O)c4ccc(NCC5CCOCC5)c([N+](=O)[O-])c4)c(Oc4cnc5[nH]ccc5c4)c3)CC2)=C(c2ccc(Cl)cc2)C1` [Venetoclax] + COc1cc(Nc2ncc3c(n2)-c2ccc(Cl)cc2C(c2c(F)cccc2OC)=NC3)ccc1C(=O)O [Alisertib] (first compound max 1 µM, 7x7, partner max 10 µM) was tested, and the “combination Emax” value [1] was 0.972, the “combination Emax” value [2] was 0.263 and the “combination Emax” value [3] was 0.823. For the same compound, the Bliss excess [4] was 0.215.

`CC(=O)Nc1cccc(-n2c(=O)n(C3CC3)c(=O)c3c(Nc4ccc(I)cc4F)n(C)c(=O)c(C)c32)c1` [Trametinib] + Cc1nc(-c2cn3c(n2)-c2ccc(-c4cnn(C(C)(C)C(N)=O)c4)cc2OCC3)n(C(C)C)n1 [Taselisib] (first compound max 1 µM, 7x7, partner max 10 µM) was tested, and the “combination Emax” value [1] was 0.694, the “combination Emax” value [2] was 0.89 and the “combination Emax” value [3] was 0.734. The Bliss excess [4] was -0.006.

For `COc1cccc(OCCCN)c1-c1cc(Nc2cnc(C#N)cn2)n[nH]1` [Prexasertib] + CCc1c2c(nc3ccc(O)cc13)-c1cc3c(c(=O)n1C2)COC(=O)[C@]3(O)CC [SN-38] (first compound max 1 µM, 7x7, partner max 0.3 µM), the “combination Emax” value [1] was 0.944, the “combination Emax” value [2] was 0.625 and the “combination Emax” value [3] was 0.994. The Bliss excess [4] was -0.0363.

With `CCN(CCO)CCCOc1ccc2c(Nc3cc(CC(=O)Nc4cccc(F)c4)[nH]n3)ncnc2c1` [AZD2811] + C=CCn1c(=O)c2cnc(Nc3ccc(N4CCN(C)CC4)cc3)nc2n1-c1cccc(C(C)(C)O)n1 [AZD1775] (first compound max 1 µM, partner max 1 µM) the “combination Emax” value [1] was 0.761, the “combination Emax” value [2] was 0.445 and the “combination Emax” value [3] was 0.775. The Bliss excess [4] was 0.0365.

For `COc1cccc(OCCCN)c1-c1cc(Nc2cnc(C#N)cn2)n[nH]1` [Prexasertib] + O=C(c1cc(Cc2n[nH]c(=O)c3ccccc23)ccc1F)N1CCN(C(=O)C2CC2)CC1 [Olaparib] (first compound max 1 µM, 7x7, partner max 10 µM), the “combination Emax” value [1] was 0.915, the “combination Emax” value [2] was 0.49 and the “combination Emax” value [3] was 0.986. The Bliss excess [4] was -0.0314.

`COc1cccc(OCCCN)c1-c1cc(Nc2cnc(C#N)cn2)n[nH]1` [Prexasertib] + C[C@@H]1COCCN1C2=NC(=NC(=C2)C3(CC3)[S@](=N)(=O)C)C4=C5C=CNC5=NC=C4 [AZD6738] (first compound max 1 µM, 7x7, partner max 10 µM) was tested, and the “combination Emax” value [1] was 0.968, the “combination Emax” value [2] was 0.555 and the “combination Emax” value [3] was 0.966. It also gave a Bliss excess [4] of -0.0351.

With `Cc1c2c(nn1C)CSCc1cc(n(C)n1)CSc1cc(c3ccccc3c1)OCCCc1c(C(=O)O)n(C)c3c-2c(Cl)ccc13` [AZD5991] + C1CN(CCC1(C(=O)N[C@@H](CCO)C2=CC=C(C=C2)Cl)N)C3=NC=NC4=C3C=CN4 [Capivasertib] (first compound max 1 µM, 7x7, partner max 3 µM) the “combination Emax” value [1] was 0.326, the “combination Emax” value [2] was 0.186 and the “combination Emax” value [3] was 0.544. The Bliss excess [4] was -0.0363.

`CN(C)CCCOc1ccc(-c2ccc3ncc4c(c3c2)n(C2CCOCC2)c(=O)n4C)cn1` [AZD0156] + C[C@@H]1COCCN1C2=NC(=NC(=C2)C3(CC3)[S@](=N)(=O)C)C4=C5C=CNC5=NC=C4 [AZD6738] (first compound max 1 µM, 7x7, partner max 10 µM) was tested, and the “combination Emax” value [1] was 0.833, the “combination Emax” value [2] was 0.615 and the “combination Emax” value [3] was 0.783. It also gave a Bliss excess [4] of -0.0183.

For `Cc1c2c(nn1C)CSCc1cc(n(C)n1)CSc1cc(c3ccccc3c1)OCCCc1c(C(=O)O)n(C)c3c-2c(Cl)ccc13` [AZD5991] + Cc1cc2ncnn2cc1Nc1ncc2c(n1)n(C1CCOCC1)c(=O)n2C [AZD7648] (first compound max 1 µM, 7x7, partner max 10 µM), the “combination Emax” value [1] was 0.339, the “combination Emax” value [2] was 0.342 and the “combination Emax” value [3] was 0.498. For the same compound, the Bliss excess [4] was -0.0539.

`COc1cccc(OCCCN)c1-c1cc(Nc2cnc(C#N)cn2)n[nH]1` [Prexasertib] + Cc1cc2ncnn2cc1Nc1ncc2c(n1)n(C1CCOCC1)c(=O)n2C [AZD7648] (first compound max 1 µM, 7x7, partner max 10 µM) was tested, and the “combination Emax” value [1] was 0.947, the “combination Emax” value [2] was 0.599 and the “combination Emax” value [3] was 0.981. It also gave a Bliss excess [4] of -0.027.

In the case of `Cc1c2c(nn1C)CSCc1cc(n(C)n1)CSc1cc(c3ccccc3c1)OCCCc1c(C(=O)O)n(C)c3c-2c(Cl)ccc13` [AZD5991] + CN(C)CCCOc1ccc(-c2ccc3ncc4c(c3c2)n(C2CCOCC2)c(=O)n4C)cn1 [AZD0156] (first compound max 1 µM, 7x7, partner max 1 µM), the “combination Emax” value [1] is reported as 0.293, the “combination Emax” value [2] is reported as 0.24 and the “combination Emax” value [3] is reported as 0.509. The Bliss excess [4] was -0.0613.

In the case of `COc1cccc2c1C(=O)c1c(O)c3c(c(O)c1C2=O)C[C@@](O)(C(=O)CO)C[C@@H]3O[C@H]1C[C@H](N)[C@H](O)[C@H](C)O1` [Doxorubicin] + Cc1cc2ncnn2cc1Nc1ncc2c(n1)n(C1CCOCC1)c(=O)n2C [AZD7648] (first compound max 1 µM, 7x7, partner max 10 µM), the “combination Emax” value [1] is reported as 0.497, the “combination Emax” value [2] is reported as 0.278 and the “combination Emax” value [3] is reported as 0.978. The Bliss excess [4] was 0.0661.
